Results from PMC11939955, “Enhancing Antimicrobial Peptides from Frog Skin: A Rational Approach” (Biomolecules, 2025).
Where no end group is shown, it is not given here.

Experiments:
[1] = test system: Streptococcus mutans (ATCC 25175); assay type: cell-based
Experimental: (§1) Hylin-Pul3 and six derivatives (dHP3-31, dHP3-50, dHP3-50.137, dHP3-50.190, dHP3-84, and dHP3-84.39) were tested against two Gram-positive bacteria, Staphylococcus aureus (ATCC 25923) and Streptococcus mutans (ATCC 25175), as well as three Gram-negative bacteria: Escherichia coli (ATCC 25922), Klebsiella pneumoniae (ATCC 13883), and Acinetobacter baumannii (ATCC 13304). The minimal inhibitory concentration (MIC) was determined using the microbroth dilution.
(§2) The peptides were serially diluted in concentrations ranging 128 to 0.25 μM, with gentamicin serving as a positive control, which was serially diluted to concentrations of 20 to 0.04 μM. Bacterial cultures were prepared in Mueller–Hinton (MH) medium to achieve a final inoculum concentration of 5 × 10^5 CFU/mL. […] All tests were performed in duplicate and repeated across three independent experiments.

[2] = test system: Klebsiella pneumoniae (ATCC 13883); assay type: cell-based
Experimental: as §1, §2

[3] = test system: Escherichia coli (ATCC 25922); assay type: cell-based; details: for Reduction in MIC against E. coli compared to hylin-Pul3: versus parent peptide hylin-Pul3
Experimental: as §1, §2

[4] = test system: Acinetobacter baumannii (ATCC 13304); assay type: cell-based; details: for Reduction in MIC against A. baumannii compared to hylin-Pul3: versus parent peptide hylin-Pul3
Experimental: as §1, §2

[5] = test system: Staphylococcus aureus (ATCC 25923); assay type: cell-based
Experimental: as §1, §2

[6] = test system: Varicellovirus suidalpha1; assay type: cell-based; details: hylin-Pul3 at 20 μg/mL (10.8 μM), dHP3-84 at 75 μg/mL (34.5 μM); Vero monolayers, 90 min adsorption then 72 h at 37 °C, plaque titer, duplicate
Experimental: Antiviral activity assays were performed following a previously described protocol with slight modifications. The efficacy of the peptide compounds was assessed at different stages of the viral lifecycle, including adsorption, penetration, and intracellular replication. The hylin-Pul3 and dHP3-84 peptides were tested at non-cytotoxic concentrations of 20 μg/mL (10.8 μM) and 75 μg/mL (34.5 μM), respectively. Vero cell monolayers (African green monkey kidney cells) were cultured in 24-well plates and exposed to the peptide solutions along with serial 10-fold dilutions of Varicellovirus suidalpha1, formerly known as Herpes suis virus type 1 (HSV-1). The assays were performed in duplicate. […] The viral plaques that formed on the Vero cells were stained (1% crystal violet) and the viral titers were determined. The percentage viral inhibition was calculated by comparing the reduction in viral titer between the treatment and control groups. This was determined using the following formula: (2) % viral inhibition=100−A/B×100 where “A” represents the viral titer expressed in PFU/mL (Plaque-Forming Units per milliliter) obtained in the treated cultures and “B” is the viral titer expressed in PFU/mL obtained in the untreated cultures.

Vero cells = assay type: cell-based, African green monkey; details: for CC50, concentration inducing 50% cell death in Vero cells / Cytotoxicity in Vero cells, CC50: 48 h
Experimental: The cytotoxicity of hylin-Pul3 and dHP3-84 peptides was evaluated on Vero cells procured from the Asociación Banco Argentino de Células (ABAC; Buenos Aires, Argentina). Cell viability was determined using the Neutral Red Uptake test (NRU) test, following a previously described methodology. The Vero cells were cultured in Minimum Essential Medium (MEM) supplemented with 8% fetal calf serum (FCS), 50 μg/mL gentamicin, and 2 mM glutamine. The cells were monitored by observing their morphological changes after 24 and 48 h of incubation.
For the NRU assay, the cells were seeded in 96-well culture plates at a density of 1 × 10^5 cells per well. The cell monolayers were treated with increasing concentrations of the peptide solutions (25–500 μg/mL) for 48 h in triplicate. The monolayers incubated with MM only were used as the control. Following exposure, the culture medium was replaced with 150 μL of a […] neutral red solution in MEM. After incubation at 37 °C for 3 h, the dye medium was discarded and the wells were gently washed with PBS. The intracellular dye was extracted using a mixture of acetic acid, ethanol, and water (1:50:49). After gentle agitation for 10 min, the absorbance values were measured at 540 nm.
The relative cell viability was calculated as a percentage of the NRU observed in the untreated control groups. The cell survival fraction was determined using the following formula: (4) Survival Fraction % (SF%)=D.O. treated cells/D.O. control cells×100

ABTS assay = details: peptides 0.05, 0.025, 0.0125 mg/mL, 1 h dark, absorbance 734 nm, triplicate
Experimental: The 2,2-azinobis-3-ethylbenzothiazoline-6-sulfonic acid (ABTS^+) free radical-scavenging activity was determined following the method in [38]. The ABTS⁺ radical cation was generated by diluting a 245 mM ammonium persulfate (APS) solution at a ratio of 1:100 with a 7 mM ABTS solution, followed by overnight incubation in the dark at room temperature. The ABTS^+ solution was then diluted with water to obtain an absorbance of 0.70 at 734 nm immediately before the assay using a Shimadzu 1240 UV-visible spectrophotometer (Kyoto, Japan). The peptides were dissolved in PBS, and 10 µL aliquots of each peptide solution were incubated with 190 µL of the ABTS^+ solution in triplicate, at final concentrations of 0.05, 0.025, and 0.0125 mg/mL. After a 1 h incubation in the dark, the absorbance was measured at 734 nm. The radical-scavenging activity was quantified against a standard curve, with the results expressed as milligrams of Trolox equivalents per milligram of peptide.

[7] = DPPH radical-scavenging activity; details: peptides 0.1, 0.05, 0.025 mg/mL, 30 min dark 25 °C, absorbance 515 nm, triplicate
Experimental: A stock solution of 60 µM 1,1-diphenyl-2-picrylhydrazyl (DPPH) was prepared in ethanol, with its absorbance adjusted to 0.7 at 515 nm immediately before the assay using a Shimadzu 1240 UV–visible spectrophotometer (Kyoto, Japan). The peptides were dissolved in PBS, and 20 µL aliquots of each peptide solution were incubated with 180 µL of the ethanolic DPPH solution in triplicate, at final concentrations of 0.1, 0.05, and 0.025 mg/mL. For the negative control, 20 µL of PBS was mixed with 180 µL of the DPPH solution, while 20 µL of Trolox (6-hydroxy-2,5,7,8-tetramethylchroman-2-carboxylic acid) served as the positive control and standard. The mixtures were incubated in the dark at 25 °C for 30 min, after which, the absorbance was measured at 515 nm. The reduction in absorbance, indicative of DPPH-scavenging activity, was compared to a standard curve. The results were expressed as milligrams of Trolox equivalents per milligram of peptide (mg Trolox equivalents/mg of peptide).

E. coli (ATCC 25922) = test: Synergistic checkerboard assay; assay type: cell-based, Escherichia coli
Experimental: Briefly, working solutions of the peptides were prepared and serially diluted by half across the rows and columns of a microplate, ensuring that each well contained a unique combination of peptide concentrations. The starting concentrations corresponded to the respective MIC values of each peptide, followed by two-fold serial dilutions.
Each well was filled with 50 µL of the peptide solution (individual or combined) and 50 µL of a bacterial suspension (1 × 10^6 CFU/mL), resulting in a final bacterial concentration of 5 × 10^5 CFU/mL. The individual peptide solutions served as positive controls, while the MH medium was employed as a negative control. The microplates were incubated at 37 °C overnight. The test was performed in three independent experiments. The fractional inhibitory concentrations index (ΣFIC) was calculated using the following equation: (1) ∑FIC =MIC(A) in combination/MIC(A) alone+MIC(B) in combination /MIC(B) alone
The FIC index (ΣFIC) was interpreted as follows: ΣFIC ≤ 0.5 indicated synergy; 0.5 < ΣFIC ≤ 4 indicated no effect; and 4 < ΣFIC indicated antagonism.

| Substance | Antimicrobial Activity (MIC) S. mutans ATCC 25175 [1] [µM] | Antimicrobial Activity (MIC) K. pneumoniae ATCC 13883 [2] [µM] | Antimicrobial Activity (MIC) E. coli ATCC 25922 [3] [µM] | Antimicrobial Activity (MIC) A. baumannii ATCC 13304 [4] [µM] | Antimicrobial Activity (MIC) S. aureus ATCC 25923 [5] [µM] | Antiviral Activity, viral inhibition [6] [%] | Cytotoxicity in Vero cells, MNCC (Vero cells) [µM] | CC50, concentration inducing 50% cell death in Vero cells (Vero cells) [µg/mL] | Cytotoxicity in Vero cells, CC50 (Vero cells) [µM] | Reduction in MIC against E. coli compared to hylin-Pul3 [3] [fold] | Reduction in MIC against A. baumannii compared to hylin-Pul3 [4] [fold] | Antioxidant activity ABTS (ABTS assay) [mg Trolox/mg] | Antioxidant activity DPPH [7] | Lower MIC than the original peptide against K. pneumoniae ([2]; versus hylin-Pul3) [fold] | Synergistic Activity, FIC Index (ΣFIC) (E. coli (ATCC 25922); combination of dHP3-84 and dHP3-50.137, E. coli ATCC 25922, 5 × 10^5 CFU/mL, 37 °C overnight, three independent experiments, ΣFIC ≤ 0.5 = synergy) | Improvement of combined activity compared to each peptide individually (E. coli (ATCC 25922); dHP3-84 + dHP3-50.137, E. coli) [fold] |
| --- | --- | --- | --- | --- | --- | --- | --- | --- | --- | --- | --- | --- | --- | --- | --- | --- |
| FLGALIPAIAGAIGGLIRK-NH2 [hylin-Pul3, reference compound] | 4.6 ± 1.6 | >64 | 32.0 ± 0.0 | 32.0 ± 0.0 | 7.3 ± 1.6 | 0 | 13.5 | 80 | 43.2 | – | – | – | – | – | – | – |
| LWPAIRGAIKKLIKK-NH2 [dHP3-31] | 18.7 ± 6.5 | >64 | 16.0 ± 0.0 | 9.3 ± 3.2 | 37.3 ± 13.1 | – | – | – | – | 4 | 4 | 0.14 | did not reveal significant activity | – | – | – |
| RLGALIPAIRGAIKKLIKK-NH2 [dHP3-50] | 8.0 ± 0.0 | 64.0 ± 0.0 | 8.0 ± 0.0 | 6.6 ± 2 | 18.6 ± 6.5 | – | – | – | – | 4 | 4 | – | – | – | – | – |
| RLGKLIPRIAKAIGRLIRK-OH [dHP3-84] | 7.3 ± 1.6 | 18.6 ± 6.5 | 8.0 ± 0.0 | 8.0 ± 0.0 | 9.3 ± 3.3 | 70 | 57.6 | 230 | 105.9 | 4 | 4 | – | – | 4 | 0.5 | 2 |
| RRIALIPAIRGAIKKLIKK-NH2 [dHP3-50.190] | 32.0 ± 0.0 | >64 | 9.3 ± 3.2 | 16.0 ± 0.0 | 29.3 ± 6.5 | – | – | – | – | – | – | – | – | – | – | – |
